Results taken from patent US11926580B2, “Hydropersulfide precursors” (THE JOHNS HOPKINS UNIVERSITY, priority 2018, dated 2024).
Several values for one entry are separate records, joined by “and”; a condition that tells them apart may be missing. Equal entries are not always repeated.

Key:
[1] = Kinetics of RSSH generation by 1H NMR with NEM trapping; type: physicochemical; conditions: 10% D2O, 37° C.; for half-life at 1 mM: phosphate buffer, NEM, pH 7.4 buffer, read-out: half-life of precursor; for t1//2 (mm) / Hydropersulfide Yield (%) (RSS-NEM adduct): precursor 1 mM, NEM 20 mM, pH 7.4 phosphate buffer; for Hydropersulfide Yield (%) (RSS-NEM adduct): based upon % precursor consumed
Protocol: FIGS. 3a and 3b provide graphs of (a) Stacked ^1H NMR spectra showing the decomposition of precursor 4d (1 mM) with NEM (20 mM) in 10% D2O, phosphate buffer (PB), pH 7.4 at 37° C. to produce RSS-NEM adduct 5a; Precursor 4d was introduced to a solution of NEM in PB at t=0 min and following equilibration and shimming, the first 1H NMR spectrum was obtained after 6 min.; and (b) The kinetics of decomposition of 4d (circles represent the —CH3 protons (Ha) of the precursor) and formation of 5a (squares represent the diasterotopic protons (Hb) of the succinimide ring of the two product diastereomers).
Next, ^1H NMR spectroscopy was used to monitor the kinetics of RSSH generation from 4d by trapping with NEM in 10% D2O, pH 7.4 buffer containing DMSO as an internal standard at 37° C. An increase in the peak intensity attributed to one of the diasterotopic protons of the succinimide ring of the two product diastereomers (Hb, δ2.99-2.91 ppm) was observed (FIG. 3a). The other diasterotopic proton (Hc, δ3.30-3.21 ppm) overlaps with N-ethylmaleamic acid (NEMA), a product derived from NEM hydrolysis. Similarly, the intensity of two methyl group protons of precursor 4d (δ1.44 and 1.41 ppm) decreased as four methyl group protons of the two diastereomers of 5a (Ha, δ1.40, 1.37 ppm and 1.40, 1.34 ppm) increased, supporting the clean conversion of 4d to 5a. The ^1H NMR peak assignments for 5a are consistent with the RSS-NEM adduct formed during S-methoxycarbonyl penicillamine disulfide (MCPD) decomposition (Scheme 1, eq. 3) in the presence of NEM.
All starting materials were of reagent grade and used without further purification. N-acetyl-D-penicillamine, N-ethylmaleimide, N-ethylmaleamic acid, and phenylcyanamide were purchased from Sigma-Aldrich and used without further purification. Thiourea and N-substituted thioureas were purchased from Alfa Aesar and Oakwood Chemicals. Deuterated solvents (Cambridge Isotope Laboratories) were used for NMR spectroscopic analyses. NMR spectra were obtained on a 400 MHz FT-NMR spectrometer. All chemical shifts are reported in parts per million (ppm) relative to residual CHCl3 (7.26 ppm for ^1H, 77.2 ppm for ^13C), residual H2O (4.79 ppm for ^1H), residual DMSO (2.50 ppm for ^1H, 39.5 for ^13C), or residual MeOH (3.31 ppm for ^1H, 49.2 ppm for ^13C). The kinetics of RSSH generation were measured using a Varian Inova 800 MHz spectrometer. UPLC-MS analysis was carried out with a Waters Acquity/Xevo-G2 UPLC-MS system equipped with an ACQUITY UPLC BEH C18 column (2.1 mm×50 mm, 1.7 μm). The mass signals for products of hydropersulfide trapping with NEM were obtained via deconvolution using MassLynx 4.1 software. The pH measurements were performed using a Fisher Scientific Accumet AB15 pH-meter. Analytical thin layer chromatography (TLC) was performed on Sigma-Aldrich silica gel on TLC A1 foils with fluorescent indicator F254 plates. Visualization was accomplished with UV light (254 nm) or staining with KMnO4. Flash column chromatography was performed using SiliaFlash P60 (230-400 mesh) silica gel. Melting points were recorded using MEL-TEMP® capillary melting point apparatus and are uncorrected.

[2] = as above; type: physicochemical; conditions: pH 7.4 buffer with 20% MeOD
[3] = UPLC-MS analysis of RSSH trapping with N-ethylmaleimide; type: physicochemical; conditions: for RSSH generation (RSS-NEM adduct formation): NEM trap
Protocol: FIGS. 2a and 2b provide graphs of (a) UPLC-MS chromatograms of RSSH generation from 4d (200 μM) in the presence of NEM (4 mM) incubated in pH 7.4 ammonium bicarbonate (100 mM) with DTPA (100 μM) at 37° C. A peak at 3.7 min corresponding to N-ethylmaleamic acid (NEMA), derived from NEM hydrolysis, was observed under these conditions (see SI); (b) MS spectrum (ESI+ mode) of the product eluting at 5.06 min corresponding to 5a with m/z 349.0885 (expected m/z 349.0886).
FIG. 5 provides a graph of UPLC-MS chromatograms of RSSH generation from compound 1 (1 mM) in the presence of NEM (5 mM) incubated in pH 7.4 ammonium bicarbonate buffer containing DTPA (100 μM) for 30 min at 37° C. The asterisk indicates the methyl ester analogue of dialkyl trisulfide 2, which was also formed due to the presence of minor amount of methyl ester analogue of 1. A peak at 3.7 min corresponding to N-ethylmaleamic acid (NEMA), derived from NEM hydrolysis, was observed under these conditions.
RSSH trapping in the presence of N-ethylmaleimide (NEM) was carried out with a Waters Acquity/Xevo-G2 UPLC-MS system equipped with an ACQUITY UPLC BEH C18 column (2.1 mm×50 mm, 1.7 μm). Typically, RSSH precursor (1 eq) was incubated with NEM (5 to 20 eq) in freshly prepared pH 7 4 ammonium bicarbonate buffer (100 mM) containing DTPA (100 μM) at 37° C. An aliquot of the reaction mixture (300 μL) was withdrawn at specified time points, quenched with 0.25% formic acid (300 μL), and filtered through a 0.22 μm filter. The samples were then loaded into vials in an autosampler maintained at 4° C. and analyzed using UPLC-MS as follows: Mobile phase: 0-1 min 90% water+0% ACN+10% formic acid (0.1%); 1-7.5 min gradient up to 10% water+80% ACN+10% formic acid (0.1%); 7.5-8.4 min 10% water+80% ACN+10% formic acid (0.1%); 8.4-8.5 min gradient up to 90% water+0% ACN+10% formic acid (0.1%), 8.5-10 min 90% water+0% ACN+10% formic acid (0.1%). Flow rate=0.3 mL min^−1. The mass signals for products of RSSH trapping with NEM were obtained via deconvolution using MassLynx 4.1 software.
To a solution of NEM (5 mM) in pH 7 4 ammonium bicarbonate (100 mM) with DTPA (100 μM) in a 20-mL scintillation vial, hydropersulfide precursor 1 (1 mM, total reaction volume 3 mL) was added. The resulting mixture was incubated at 37° C. for 30 min. An aliquot of 300 μL reaction mixture was withdrawn, quenched with 300 μL of formic acid (0.25%) and analyzed using UPLC-MS.

[4] = tested on: cardiomyocyte H9c2 cells; test: Cytoprotection against hydrogen peroxide-induced cytotoxicity; type: cell-based; conditions: pretreatment 2 h (4d 50 μM; phenyl cyanamide 200 μM), then H2O2 200 μM 2 h, CCK-8
Protocol: (§1) FIGS. 6a and 6b provide graphs of (a) the cell viability of cardiomyocyte H9c2 cells following incubation of the RSSH precursor 4d (50 μM) and phenylcynamide (200 μM) for 24 h; and (b) the cytoprotective effects of the RSSH precursor 4d observed following pretreatment of H9c2 cells with either 4d (50 μM) or phenylcynamide (200 μM) for 2 h, followed by hydrogen peroxide (200 μM) treatment for 2 h. Quantification of cell viability was carried out using Cell Counting Kit-8 (CCK-8). Results are expressed as the mean±SEM (n=6).
Since hydropersulfides are reported to mitigate oxidative stress, the ability of RSSH precursor 4d to protect cardiomyocyte H9c2 cells from cytotoxicity induced by hydrogen peroxide (H2O2) was tested.

[5] = tested on: cardiomyocyte H9c2 cells; test: Cytotoxicity / cell viability assay with Cell Counting Kit-8; type: cell-based; conditions: up to 200 μM, 24 h, CCK-8
Protocol: as §1
The cytotoxicity and impact on cell viability of the hydropersulfide (RSSH) precursor 4d have been examined using the cardiomyocyte H9C2 cell line and Cell Counting Kit-8 (CCK-8). A cell viability assay reveled that 4d was not cytotoxic at 50 μM ([…]).

Row | melting point [°C] | half-life at 1 mM [1] [min] | t1//2 (mm) [1] [min] | SMILES | Hydropersulfide Yield (%) (RSS-NEM adduct) [1] | RSSH generation (RSS-NEM adduct formation) ([3]; pH 7.4 buffer, 37° C., UPLC-MS) | other results
1 | 152 to 154 | 17.3 | 173 ± 0.4 | CC(=O)NC(C(=O)O)C(C)(C)SSC(=N)Nc1ccccc1Cl.Cl (centres unmarked) [Precursor 4f, ((1-acetamido-1-carboxy-2-methylpropan-2-yl)disulfaneyl)((2-chlorophenyl)amino) methaniminium chloride] | 95% and 95 ± 2% | – | –
2 | 151 to 153 | – | – | CC(=O)NC(C(=O)O)C(C)(C)SSC(=N)Nc1ccc(C(F)(F)F)cc1.Cl (centres unmarked) [Precursor 4h, ((1-acetamido-1-carboxy-2-methylpropan-2-yl)disulfaneyl)((4-(trifluoromethyl)phenyl)amino)methaniminium chloride] | – | – | Hydropersulfide Yield (%) (RSS-NEM adduct) ([2]; NEM, 37° C.): 95% and 95 ± 2^d %; t1//2 (mm) ([2]; NEM, 37° C.): 6.8 ± 0.2 min; half-life ([2]; pH 7.4, read-out: half-life of precursor): 6.8 min
3 | 154 to 156 | – | – | CC(=O)NC(C(=O)O)C(C)(C)SSC(=N)N.Cl (centres unmarked) [Precursor 4a, ((1-acetamido-1-carboxy-2-methylpropan-2-yl)disulfaneyl)(amino)methaniminium chloride] | – | formation of RSS-NEM 5a | –
4 | 153 to 155 | – | – | CNC(=N)SSC(C)(C)C(NC(C)=O)C(=O)O.Cl (centres unmarked) [Precursor 4b, ((1-acetamido-1-carboxy-2-methylpropan-2-yl)disulfaneyl)(methylamino) methaniminium chloride] | – | reduced compared with that from 4a | –
5 | 143 to 145 | 9.3 | 9.3 ± 0.6 | CC(=O)NC(C(=O)O)C(C)(C)SSC(=N)Nc1ccc(Cl)cc1.Cl (centres unmarked) [Precursor 4g, ((1-acetamido-1-carboxy-2-methylpropan-2-yl)disulfaneyl)((4-chlorophenyl)amino) methaniminium chloride] | 91% and 91 ± 1% | – | –
6 | 142 to 144 | 5 | 5.0 ± 0.5 | COc1ccc(NC(=N)SSC(C)(C)C(NC(C)=O)C(=O)O)cc1.Cl (centres unmarked) [Precursor 4e, ((1-acetamido-1-carboxy-2-methylpropan-2-yl)disulfaneyl)((4-methoxyphenyl)amino) methaniminium chloride] | 75% and 75 ± 2% | – | –
7 | 190 to 192 | – | – | COC(=O)C(NC(C)=O)C(C)(C)SSC(=N)N.Cl (centres unmarked) [Precursor 4c, ((3-acetamido-4-methoxy-2-methyl-4-oxobutan-2-yl)disulfaneyl)(amino)methaniminium chloride] | – | – | RSS-NEM adduct 5b yield ([3]; decomposition in the presence of NEM, UPLC-MS): less than 50%

The remaining lines, values behind:

Row | SMILES | melting point [°C] | half-life at 1 mM [1] [min] | t1//2 (mm) [1] [min] | Hydropersulfide Yield (%) (RSS-NEM adduct) [1] | RSSH generation (RSS-NEM adduct formation) ([3]; pH 7.4 buffer, 37° C., UPLC-MS) | other results
8 | CC(C)(C)SSC(=N)Nc1ccccc1.Cl [Precursor 9, (t-butyldisulfaneyl)(phenylamino)methaniminium chloride] | – | 17.3 | – | 97% | – | –
9 | CC(=O)NC(CSSC(=N)N)C(=O)O.Cl (centres unmarked) [Precursor 1, ((2-acetamido-2-carboxyethyl)disulfaneyl)(amino)methaniminium chloride] | 70 to 72 | – | – | – | no evidence of persulfide-NEM adduct formation | disappearance of precursor ([3]; 1 mM with NEM 5 mM, pH 7.4 buffer, 37° C., 30 min): complete disappearance
10 | N#CNc1ccccc1 [phenyl cyanamide, reference compound] | – | – | – | – | – | cytoprotection from H2O2-induced cytotoxicity [4]: did not protect; tolerability (cell viability) [5]: well tolerated
